The values that follow come from PMC8177068, “Secondary (iso)BAs cooperate with endogenous ligands to activate FXR under physiological and pathological conditions” (Biochimica et biophysica acta. Molecular basis of disease, 2021).

Series [1] relates to intestinal Fgf15. The series can be described thus: BA-enriched diet in mice: intestinal FXR target gene expression. Particulars: C57BL/6 J mice, 0.5% (w/w) chow diet. The series is classed as in vivo, mouse. Here is the method: (§1) RNA was extracted from cells or snap-frozen tissue samples (approximately 50 mg) using Trizol according to the manufacturer’s instructions and as described previously in detail. Liver samples were homogenized before extraction in a MagNA Lyser at 6500 rpm for 2 × 20 s intervals. Concentration and quality (absorbance 260/280 & […] ratios) of RNA was measured on a NanoDrop™ 2000 spectrophotometer. Isolated RNA was reverse-transcribed by using the SuperScript II cDNA synthesis enzyme according to the manufacturer’s instructions. Primers used for RT-qPCR were designed using the open-source program Primer3. Primers were designed to span exon-intron boundaries with an amplicon size of less than 150 bp. Relative changes were calculated using a standard curve and 36b4 as the reference genes.
Fig. 6.

For series [2], the system named is hepatic Cyp7a1. The series is described as follows: BA-enriched diet in mice: hepatic BA synthesis gene expression. The series is classed as in vivo, mouse. Particulars: for Cyp7a1 levels in the liver: C57BL/6 J mice, 0.5% (w/w) chow diet. The method, then:
as §1
(§2) All animals were housed with a 12-h light-dark cycle in humidity and temperature-controlled conditions and permitted ad libitum consumption of water and a standard mouse diet (Altromin 1324, Lage, Germany). All the experiments were approved by the European Directive 2010/63/EU and approved by the Austrian Federal Ministry of Education, Science and Research (Vienna, Austria; BMWFW-66.010/0124-V/3b/2018, BMWFW-66.010/0129-WF/V/3b/2016, and the Institutional Animal Care and Use Committees at Emory University and were in conformity with the Austrian/US animal law. The Ostα^−/−, Asbt^−/−, Ostα-Asbt DKO (double knockout) and Fxr^−/−mice were generated as previously described. Experiments were performed in 8–12 weeks-old mice. Mice were fed a chow diet (Altromin 1324, Lage, Germany); for BA supplementation experiments, male mice were fed 0.5% (w/w) diet of the indicated BA for the indicated time. CBDL was performed as described previously. Mice were euthanized by decapitation and tissues including liver and intestine were immediately dissected, weighed and frozen in liquid nitrogen for subsequent molecular analysis or preserved for histological analysis.
Fig. 6. Regulation of FXR target genes in vivo after treatment with unconjugated and conjugated bile acids.
Fig. 7.

For series [3], the system named is FXR target genes (Ostb, Kng1). The series is described as follows: FXR target gene mRNA/pre-mRNA expression in HepG2 cells (qRT-PCR). The series is classed as cell-based, human. Particulars: 6 h. Here is the method:
as §1
Fig. 1.
(In qPCR the cycle at which signal appears reflects the starting amount.)

For series [4], the target named is T1, FXR ligand binding domain (NucleoBAS) (Homo sapiens, UniProt Q96RI1).
T1 construct: nuclear localisation (sensor targeted to the nucleus; signal not described); expressed in transfected cells; host or cells: U2OS cells stably expressing NucleoBAS (PEI transfection, colony selection); some experiments with co-expressed NTCP-mKate2
T1 sequence (Q96RI1 262-486 limits assumed): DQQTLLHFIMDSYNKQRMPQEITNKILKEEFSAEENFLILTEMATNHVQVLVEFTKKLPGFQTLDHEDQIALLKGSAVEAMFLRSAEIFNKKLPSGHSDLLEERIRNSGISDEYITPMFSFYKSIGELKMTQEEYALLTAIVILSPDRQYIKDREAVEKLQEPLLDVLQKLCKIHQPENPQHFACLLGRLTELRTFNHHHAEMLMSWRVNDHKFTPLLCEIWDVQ
The series is described as follows: Confocal FRET bile acid sensor (NucleoBAS) in U2OS cells. The series is classed as cell-based. The conditions noted are these: NTCP-NucleoBAS cells in CFBS. From the text:
Fig. 3.
Fig. 4. […] Error bars represent the SEM.
(§3) (1 picture or pasted object on this page, not shown here)

Series [5] has as its system Bsep. The series is described as follows: Hepatic Bsep pre-mRNA and mRNA in animals treated with GSK2324. The series is classed as in vivo. Particulars: animals treated with GSK2324, liver. The method, then:
Supplementary Figure 2. (A) Hepatic expression of bile acid transport (Bsep) and BA-synthesis gene (Cyp7a1) pre-mRNA and mRNA after treatment with either vehicle or the synthetic FXR agonist GSK2324 for 30 minutes (n = 7-8), 1 hour (n = 8), or 2 hours (n = 7-8) before sacrifice; values represent the mean ± SEM. *p<0.05, #p<0.01. Effect of the synthetic FXR ligand (GW4064) and isoBAs (isoCDCA, isoDCA, isoUDCA) on mRNA (B) and pre-mRNA (C) levels of Ostb, Kng1, Shp in HepG2 cells treated over time; n=3. Values represent the mean ± SEM.
as §3

In series [6] the test system is human ASBT. Details: method as in PMID 24328955. Particulars: cited from earlier work.
Series [7] can be described thus: Metabolism of isoBAs in HepG2 cells (LC-MS). The series is classed as in vitro ADME, human. Particulars: 4 h. The method, then: The protocol has been published in detail previously. Briefly, internal standards were added to cells in 12-well plates and cells were lysed in methanol. The debris was pelleted, the supernatant dried and dissolved in running buffer. BAs were separated by HPLC using a C18 reversed phase or pentafluorophenyl column prior to quantification by mass spectrometry.
Having established suitable analytical methods, we focused on the metabolism of isoBAs and their 3-alpha-epimers in vitro, using conditions similar to our cell-based FXR assays. […] This may indicate that the presence of the 12-hydroxy group prevents further metabolism into 3α-BAs. It was also observed that a very small amount of 3α-OH BAs were converted to 3-keto intermediates (Fig. 2B, C).
Fig. 2. IsoBAs are metabolized into (3-keto/oxo) derivatives and are partially re-epimerized into 3-alpha hydroxy BAs. HepG2 cells were incubated with (A) isoBAs or (B) their 3-alpha-epimers for 4 h. BAs were measured on C-18 column by LC/MS. Upper panel BAs and isoBAs; lower panel keto/oxo derivatives after incubation. Chromatograms of isoBA-standards are shown in Supplementary Fig. 3A. (C) Merged chromatograms of (A) & (B). […] (*) conversion of isoBAs into 3-alpha hydroxy BAs. (m/z) mass divided by charge number.

Details of series [8]: method as in PMID 9126801, PMID 11352980. The conditions noted are these: pilot studies; cited from earlier work.
The subject of series [9] is FXR target genes. The series can be described thus: Single dose gavage of (iso)BAs followed by GW4064 in mice, FXR target genes. The series is classed as in vivo, mouse. The conditions noted are these: 60 mg/kg BW followed by GW4064 30 mg/kg BW, 6 h.
Excerpt: as §2
Fig. 5. […] Genes were analyzed 6 h after gavage; n = 3–4, values represent the mean ± SEM. *p < 0.05; #p < 0.01.
Supplementary Figure 5. […]
Genes were analyzed 6 hours after gavage; n=3-4, values […]

In the case of `C[C@H](CCC(=O)O)[C@H]1CC[C@H]2[C@@H]3[C@H](O)C[C@@H]4C[C@H](O)CC[C@]4(C)[C@H]3C[C@H](O)[C@]12C` [CA, cholic acid], in series [1], the “Fgf15 and Ibabp expression in the intestine” value is reported as “increased”. The “Cyp7a1 levels in the liver” value in series [2] is listed as “repressed”. Moreover, in series [3], the “induction of Ostβ and Kng1 pre-mRNAs” value is recorded as “not”.
As to `C[C@H](CCC(=O)O)[C@H]1CC[C@H]2[C@@H]3CC[C@@H]4C[C@H](O)CC[C@]4(C)[C@H]3C[C@H](O)[C@]12C` [DCA, deoxycholic acid, reference compound], the “induction of Ostβ and Kng1 pre-mRNAs” value in series [3] was “robustly induced”.
As to `CC(CCC(=O)NCC(=O)O)C1CCC2C3C(O)CC4CC(O)CCC4(C)C3CCC12C` (centres unmarked) [GCDCA, glycochenodeoxycholic acid, reference compound], the “change in FRET” value in [4] (10 μM GCDCA) is “markedly increased FRET”.
On to `CC(C)c1onc(-c2c(Cl)cccc2Cl)c1COc1ccc(-c2ccc3nc(C(=O)O)ccc3c2)cc1` [GSK2324], for which the “Bsep pre-mRNA induction over the mature Bsep mRNA” value in series [5] is ~ 20 fold.
Take `C[C@H](CCC(=O)O)[C@H]1CC[C@H]2[C@@H]3CC[C@@H]4C[C@H](O)CC[C@]4(C)[C@H]3CC[C@]12C` [LCA, lithocholic acid, reference compound]: in [3], the “induction of Ostβ and Kng1 pre-mRNAs” value is on record as “not”.
For `C[C@H](CCC(=O)NCCS(=O)(=O)O)[C@H]1CC[C@H]2[C@@H]3[C@@H](O)C[C@@H]4C[C@H](O)CC[C@]4(C)[C@H]3CC[C@]12C` [TUDCA, tauroursodeoxycholic], the “expression of pre-mRNA over mRNA as compared to CA and TCA” value in series [1] is “more strongly enhanced”.
For `C[C@H](CCC(=O)O)[C@H]1CC[C@H]2[C@@H]3[C@@H](O)C[C@@H]4C[C@H](O)CC[C@]4(C)[C@H]3CC[C@]12C` [UDCA, ursodeoxycholic acid], in [2], the “Cyp7a1 levels in the liver” value was “repressed”. In addition, in [2] (CBDL mice, 0.5% (w/w) diet 7 days), the “effect on liver Cyp7a1 mRNA expression” value was “inhibited”. For the same compound, the “repression of Cyp7a1 mRNA levels” value in series [2] (CBDL-Fxr KO mice) was “not”; in series [2] (CBDL-WT mice), “repress”. Moreover, the “affinity for human ASBT compared to native BAs” value in [6] is on record as “identical binding affinities”.
Consider `C[C@H](CCC(=O)O)[C@H]1CC[C@H]2[C@@H]3[C@H](O)C[C@@H]4C[C@@H](O)CC[C@]4(C)[C@H]3C[C@H](O)[C@]12C` [isoCA], for which the “re-epimerization (conversion) into the 3α-stereoisomer” value (from here on “re-epimerization”) in series [7] is reported as “did not observe re-epimerization”. Moreover, the “induction of Ostβ and Kng1 pre-mRNAs” value in series [3] is on record as “not”.
Take `C[C@H](CCC(=O)O)[C@H]1CC[C@H]2[C@@H]3[C@H](O)C[C@@H]4C[C@@H](O)CC[C@]4(C)[C@H]3CC[C@]12C` [isoCDCA]: the “re-epimerization” value in series [7] was “observed”. Besides, in series [3], the “induction of Ostβ and Kng1 mRNA” value was “significant induction”; the “induction of Ostβ and Kng1 pre-mRNAs” value was “robustly induced”.
Consider `C[C@H](CCC(=O)O)[C@H]1CC[C@H]2[C@@H]3CC[C@@H]4C[C@@H](O)CC[C@]4(C)[C@H]3C[C@H](O)[C@]12C` [isoDCA, (5β, 3β, 12α) -dihydroxy-cholan-24-oic acid], for which the “change in FRET signal induced by GCDCA” value in series [4] (100 μM isoBA at t = 240 s after 10 μM GCDCA) was “reduced the FRET signal”. For the same compound, the “re-epimerization” value in series [7] is on record as “did not observe re-epimerization”. Also, in series [3], the “induction of Ostβ and Kng1 mRNA” value is recorded as “barely induced”; the “induction of Ostβ and Kng1 pre-mRNAs” value is on record as “robustly induced”.
As to `C[C@H](CCC(=O)O)[C@H]1CC[C@H]2[C@@H]3CC[C@@H]4C[C@@H](O)CC[C@]4(C)[C@H]3CC[C@]12C` [isoLCA], in [3], the “induction of Ostβ and Kng1 pre-mRNAs” value is “not”.
As for `C[C@H](CCC(=O)O)[C@H]1CC[C@H]2[C@@H]3[C@@H](O)C[C@@H]4C[C@@H](O)CC[C@]4(C)[C@H]3CC[C@]12C` [isoUDCA], in [7], the “re-epimerization” value is recorded as “observed”. Besides, the tolerability result in series [8] was “well tolerated without any side effects”. For the same compound, the “repression of Cyp7a1 in the liver compared to UDCA” value in [9] is reported as “even better”. For the same compound, in [3], the “induction of Ostβ and Kng1 mRNA” value is reported as “barely induced”; the “induction of Ostβ and Kng1 pre-mRNAs” value is on record as “not”. Besides, the “affinity for human ASBT compared to native BAs” value in [6] is “identical binding affinities”.
